Measurements taken from patent publication US20250109127A1, “METHODS OF USE OF PHENOXYPROPYLAMINE COMPOUNDS TO TREAT DEPRESSION” (Minerva Neurosciences, Inc., priority 2013, published 2025).
Values joined by “and” are separate entries in the source; they are usually repeats but may differ in a detail not shown here. Equal values may be shown once. Where a name gives a salt, the structure may show the parent alone.

Test system: norepinephrin release in the rat prefrontal cortex
Test: Microdialysis: norepinephrine release in prefrontal cortex after I.P. administration
Format: in vivo
Conditions: for NOREPINEPHRIN in dialysate, individual animals / NOREPINEPHRIN in dialysate, MEAN: SON-117 0.1 mg/kg I.P.; for NOREPINEPHRIN in dialysate, individual animals: hydrochloride, 0.1 mg/kg; for NOREPINEPHRIN (% of respective basal) MEAN / NE concentrations in prefrontal cortex, significant slight increase: SON-117 0.3 mg/kg I.P.; for NOREPINEPHRIN (% of respective basal) MEAN: n = 8
Experimental: The aim of the study was to evaluate, using microdialysis, the effects of an intraperitoneal (I.P.) administration in rats of three different doses of SON-117 on dopamine and its metabolites, serotonin and its metabolite (5-HIAA), and norepinephrine levels in prefrontal cortex.
Thirty-two adult male Wistar rats were used for the whole study (4 groups of eight animals planned for the study, Table 1).
Surgery was performed on rats weighing about 300 g at the beginning of the experiments. Rats were anaesthetized with Ketamine (50 mg/kg) & Xylazine (15 mg/kg) by intramuscular administration. The animals were placed in a stereotaxic apparatus in the flat-skull position at a constant setting of −3.3 mm between ear bars and the incisor bar. The animals were treated with a local anesthesic (xylocaine 1%, Astra Zeneca) and an analgesic (Temgesic, from Schering Plough, 0.05 mg/kg, s.c.). A rostrocaudal midline incision was made with a lancet to expose the dorsal skull surface. The “stereotaxic zero” was defined by the Bregma in accordance with Paxinos and Watson's atlas (1986). A hole was drilled in the skull with a drill and the meninges were pierced with a sterile needle to implant a CMA12 guide cannula which later received the dialysis probe.
Coordinates used for implanting guide cannula in prefrontal cortex from Bregma were anteroposterior 3.7 mm, mediolateral 0.8 mm, and dorsoventral −2 mm (top of the probe was at −5 mm). The guide cannula was fixed to the skull with two stainless steel screws (1.88 mm outside diameter) anchored. An application of dental cement was added. A plastic collar allowed each animal to be tethered to a Swivel assembly of the CMA 120 awake animal system. Following surgery, rats were kept in individual cages and allowed to recover for a minimum of 3-5 days before the experimentation. The rats were handled and put in plastic bowl for 10 min at least every day to habituate the animals to their new environment for the dialysis. An I.P. administration with saline was also performed every day.
Dialysis probes (CMA12/3 mm, membrane, 20 kD cut-off, Carnegie Medicine, Stockholm, Sweden), were carefully washed before inserting into the guide cannula. The wash was performed with the artificial cerebrospinal fluid (aCSF) medium (NaCl 147 mM, KCl 2.7 mM, CaCl2 1.2 mM, MgCl2 0.85 mM) at room temperature. The dialysis system was then equilibrated at 20° C. at a perfusion rate of 1 μl/min with a Carnegie pump (CMA100). All catheters (FEP tubing, internal volume of 1.2 μl/10 cm, and tubing adaptors) used for microdialysis were treated in the same conditions.
The probes duly prepared were inserted into the guide cannula and the CMA120 Swivel assembly secured to the animal using a plastic collar. Flow through the dialysis probe with aCSF was maintained at a rate of 1 μl/min during the whole experimentation. The first four fractions (corresponding to 2 hours) were discarded to avoid the effects of parenchymal disturbance and to ensure that an approximate steady-state level was reached. Fractions were then collected over a period of 8.5 h during which time the animals remained quiet. The dialysates were automatically collected with an autosampler (microfraction collector CMA 140, Carnegie Medicin) and stored at −80° C. until analysis. […] Perfusion was then maintained for 7 hours with aCSF. The dialysates (30 μl) were collected into 300 μl vials, transferred into dry ice and then kept frozen (−80° C.) until analysis. Frozen samples were shipped to a partner for analysis. At the end of the microdialysis study, a PBS with colored ink was perfused through the probe in order to visualize the dialyzed area.
Catecholamine assay: Concentrations of dopamine, DOPAC, HVA, 5-HIAA, 5-HT, and norepinephrin were determined for each sample by HPLC coupled with electrochemical detection. […]

## Cc1nnc(-c2cc3c(OC[C@@H](O)CN4CCC(c5ccc(Cl)c(Cl)c5)CC4)cccc3o2)o1 [SON-117, (S)-1-(4-(3,4-dichlorophenyl)piperidino)-3-(2-(5-methyl-1,3,4-oxadiazol-2-yl)benzo(b)furan-4-yloxy)-2-propanol hydrochloride]
T1 h 30-T2 h
  NOREPINEPHRIN in dialysate, individual animals: 62.36 % of respective basal and 99.69 % of respective basal and 70.34 % of respective basal and 106.16 % of respective basal and 81.71 % of respective basal and 48.44 % of respective basal and 107.26 % of respective basal and 74.26 % of respective basal
  NOREPINEPHRIN (% of respective basal) MEAN: 95.77 % of respective basal
T1 h-T1 h 30
  NOREPINEPHRIN in dialysate, MEAN: 91.81 % of respective basal
  NOREPINEPHRIN in dialysate, individual animals: 76.18 % of respective basal and 103.4 % of respective basal and 76.89 % of respective basal and 121.08 % of respective basal and 91.95 % of respective basal and 79.30 % of respective basal and 109.47 % of respective basal and 76.21 % of respective basal
  NOREPINEPHRIN (% of respective basal) MEAN: 100.55 % of respective basal
T2 h 30-T3 h
  NOREPINEPHRIN in dialysate, MEAN: 79.52 % of respective basal
  NOREPINEPHRIN in dialysate, individual animals: 73.33 % of respective basal and 70.54 % of respective basal and 58.97 % of respective basal and 74.27 % of respective basal and 104.33 % of respective basal and 81.47 % of respective basal and 116.2 % of respective basal and 57.05 % of respective basal
  NOREPINEPHRIN (% of respective basal) MEAN: 106.82 % of respective basal
T2 h-T2 h 30
  NOREPINEPHRIN in dialysate, MEAN: 78.83 % of respective basal
  NOREPINEPHRIN in dialysate, individual animals: 66.69 % of respective basal and 98.72 % of respective basal and 65.78 % of respective basal and 70.31 % of respective basal and 92.44 % of respective basal and 49.48 % of respective basal and 109.29 % of respective basal and 77.91 % of respective basal
  NOREPINEPHRIN (% of respective basal) MEAN: 100.26 % of respective basal
T3 h 30-T4 h
  NOREPINEPHRIN in dialysate, MEAN: 86.32 % of respective basal
  NOREPINEPHRIN in dialysate, individual animals: 91.02 % of respective basal and 105.19 % of respective basal and 59.70 % of respective basal and 76.69 % of respective basal and 123.13 % of respective basal and 96.82 % of respective basal and 105.05 % of respective basal and 32.98 % of respective basal
  NOREPINEPHRIN (% of respective basal) MEAN: 128.69 % of respective basal
T3 h-T3 h 30
  NOREPINEPHRIN in dialysate, MEAN: 86.82 % of respective basal
  NOREPINEPHRIN in dialysate, individual animals: 152.99 % of respective basal and 92.11 % of respective basal and 58.83 % of respective basal and 77.12 % of respective basal and 91.45 % of respective basal and 56.94 % of respective basal and 113.71 % of respective basal and 51.43 % of respective basal
  NOREPINEPHRIN (% of respective basal) MEAN: 116.32 % of respective basal
T4 h 30-T5 h
  NOREPINEPHRIN in dialysate, MEAN: 109.54 % of respective basal
  NOREPINEPHRIN in dialysate, individual animals: 204.20 % of respective basal and 144.74 % of respective basal and 38.63 % of respective basal and 124.67 % of respective basal and 96.8 % of respective basal and 102.84 % of respective basal and 104.62 % of respective basal and 59.86 % of respective basal
  NOREPINEPHRIN (% of respective basal) MEAN: 125.81 % of respective basal
T4 h-T4 h 30
  NOREPINEPHRIN in dialysate, MEAN: 111.29 % of respective basal
  NOREPINEPHRIN in dialysate, individual animals: 220.91 % of respective basal and 88.73 % of respective basal and 75.17 % of respective basal and 90.11 % of respective basal and 112.61 % of respective basal and 91.91 % of respective basal and 116.00 % of respective basal and 94.90 % of respective basal
  NOREPINEPHRIN (% of respective basal) MEAN: 119.37 % of respective basal
T5 h 30-T6 h
  NOREPINEPHRIN in dialysate, MEAN: 93.44 % of respective basal
  NOREPINEPHRIN in dialysate, individual animals: 159.66 % of respective basal and 111.49 % of respective basal and 76.32 % of respective basal and 79.52 % of respective basal and 94.09 % of respective basal and 72.17 % of respective basal and 101.35 % of respective basal and 52.95 % of respective basal
  NOREPINEPHRIN (% of respective basal) MEAN: 135.41 % of respective basal
T5 h-T5 h 30
  NOREPINEPHRIN in dialysate, MEAN: 94.69 % of respective basal
  NOREPINEPHRIN in dialysate, individual animals: 188.91 % of respective basal and 96.57 % of respective basal and 69.39 % of respective basal and 78.76 % of respective basal and 94.15 % of respective basal and 68.42 % of respective basal and 102.42 % of respective basal and 58.91 % of respective basal
  NOREPINEPHRIN (% of respective basal) MEAN: 124.93 % of respective basal
T6 h 30-T7 h
  NOREPINEPHRIN in dialysate, MEAN: 117.60 % of respective basal
  NOREPINEPHRIN (% of respective basal) MEAN: 140.96 % of respective basal
T6 h-T6 h 30
  NOREPINEPHRIN in dialysate, MEAN: 89.68 % of respective basal
  NOREPINEPHRIN in dialysate, individual animals: 196.16 % of respective basal and 73.01 % of respective basal and 27.50 % of respective basal and 79.85 % of respective basal and 96.77 % of respective basal and 85.56 % of respective basal
  NOREPINEPHRIN (% of respective basal) MEAN: 137.68 % of respective basal
T-30 min-T0 (pre-dose)
  NOREPINEPHRIN in dialysate, MEAN: 91.33 % of respective basal
T-1 h 30-T-1 h (pre-dose)
  NOREPINEPHRIN in dialysate, MEAN: 109.41 % of respective basal
T-1 h-T-30 min (pre-dose)
  NOREPINEPHRIN in dialysate, MEAN: 99.26 % of respective basal
SON-117 0.1 mg/kg vs citalopram 10 mg/kg, at 4.5 h and 7 h
  levels of NE compared to the citalopram treated group (two-way ANOVA, significant): higher
T0-T30 min
  NOREPINEPHRIN (% of respective basal) MEAN: 109.06 % of respective basal
T30-T1 h
  NOREPINEPHRIN (% of respective basal) MEAN: 104.15 % of respective basal
T-30 min-T0 (before administration)
  NOREPINEPHRIN (% of respective basal) MEAN: 94.72 % of respective basal
T-1 h 30-T-1 h (before administration)
  NOREPINEPHRIN (% of respective basal) MEAN: 105.37 % of respective basal
T-1 h-T-30 min (before administration)
  NOREPINEPHRIN (% of respective basal) MEAN: 99.90 % of respective basal
At 3.5 h
  NE concentrations in prefrontal cortex, significant slight increase: 117%
From 4.5 h to 7 h
  NE concentrations in prefrontal cortex, significant slight increase: 128%
SON-117 0.3 mg/kg vs citalopram 10 mg/kg, at 3.5 h, 4 h, 4.5 h, 5 h, 5.5 h, 6 h and 7 h
  levels of NE compared to the citalopram treated group (two-way ANOVA, significant): higher
SON-117 3 mg/kg IP
  NE dialysate levels vs mean pre-administration value: no statistically significant differences
SON-117 3 mg/kg vs citalopram 10 mg/kg, at 1.5 h and 3.5 h
  levels of NE compared to the citalopram treated group (two-way ANOVA, significant): higher
SON-117, three doses tested, 7 h after administration
  release of NE, maximum increase: 129%
